Activity calls are given as the source filed them. The calls are words filed in the database; no cut-off is given here.
What was measured:
SH-SY5Y = assay: Neuroprotective activity against STZ induced cell death of human SH-SY5Y cells after 24 hrs by MTT assay; type: functional, cell-based
[1] = target: Amyloid-beta precursor protein (Homo sapiens) (UniProt P05067); assay: Inhibition of STZ induced beta amyloid (unknown origin) deposition in HEK293 cells harboring APPSW mutant at 20 uM by ELISA; type: cell-based
Sequence of Amyloid-beta precursor protein (Homo sapiens) (P05067 whole entry): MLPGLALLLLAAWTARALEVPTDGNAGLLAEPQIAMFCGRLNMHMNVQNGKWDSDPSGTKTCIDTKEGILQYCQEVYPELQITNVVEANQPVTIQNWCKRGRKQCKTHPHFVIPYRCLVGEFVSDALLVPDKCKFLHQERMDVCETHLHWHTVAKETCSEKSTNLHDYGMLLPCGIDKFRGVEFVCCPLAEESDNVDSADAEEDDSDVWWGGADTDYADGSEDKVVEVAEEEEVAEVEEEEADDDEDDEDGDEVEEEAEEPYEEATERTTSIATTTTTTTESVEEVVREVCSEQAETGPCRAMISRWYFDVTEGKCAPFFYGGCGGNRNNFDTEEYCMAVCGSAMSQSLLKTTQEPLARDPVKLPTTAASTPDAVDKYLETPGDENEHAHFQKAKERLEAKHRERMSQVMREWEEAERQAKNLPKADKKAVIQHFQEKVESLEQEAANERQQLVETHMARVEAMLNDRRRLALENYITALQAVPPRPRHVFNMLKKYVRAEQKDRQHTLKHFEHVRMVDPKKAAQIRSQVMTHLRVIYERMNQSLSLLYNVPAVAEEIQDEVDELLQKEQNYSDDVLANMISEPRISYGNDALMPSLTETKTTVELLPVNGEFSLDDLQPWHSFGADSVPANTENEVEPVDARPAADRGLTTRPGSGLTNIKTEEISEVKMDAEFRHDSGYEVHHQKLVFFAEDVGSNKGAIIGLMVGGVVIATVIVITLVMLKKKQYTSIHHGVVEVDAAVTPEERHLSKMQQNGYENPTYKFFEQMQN

[2] = target: Microtubule-associated protein tau (Homo sapiens) (UniProt P10636); assay: Inhibition of STZ induced tau hyperphosphorylation at ser396 residues in human SH-SY5Y cells at 20 uM by immunohistochemical assay; type: cell-based
Sequence of Microtubule-associated protein tau (Homo sapiens) (P10636 whole entry): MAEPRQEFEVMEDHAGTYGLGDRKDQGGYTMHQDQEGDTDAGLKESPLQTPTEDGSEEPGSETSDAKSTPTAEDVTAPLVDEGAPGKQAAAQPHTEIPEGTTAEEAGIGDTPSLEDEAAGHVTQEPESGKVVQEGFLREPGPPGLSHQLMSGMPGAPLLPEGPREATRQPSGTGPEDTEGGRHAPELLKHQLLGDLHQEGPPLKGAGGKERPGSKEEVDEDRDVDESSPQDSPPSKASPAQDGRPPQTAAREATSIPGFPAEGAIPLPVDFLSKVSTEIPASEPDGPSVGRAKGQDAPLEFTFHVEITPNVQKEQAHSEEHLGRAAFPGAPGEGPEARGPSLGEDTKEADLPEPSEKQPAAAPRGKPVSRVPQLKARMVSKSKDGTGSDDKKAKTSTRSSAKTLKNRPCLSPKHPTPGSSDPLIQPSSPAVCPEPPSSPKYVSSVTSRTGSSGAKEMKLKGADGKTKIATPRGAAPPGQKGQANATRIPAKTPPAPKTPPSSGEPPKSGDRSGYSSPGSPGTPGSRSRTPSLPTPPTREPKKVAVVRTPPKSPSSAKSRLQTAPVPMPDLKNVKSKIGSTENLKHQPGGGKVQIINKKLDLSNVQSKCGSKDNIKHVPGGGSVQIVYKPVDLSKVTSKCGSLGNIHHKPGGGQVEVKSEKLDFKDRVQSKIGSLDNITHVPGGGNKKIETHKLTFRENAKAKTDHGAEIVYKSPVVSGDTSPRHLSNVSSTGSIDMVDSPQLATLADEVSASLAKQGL

[3] = target: Amyloid-beta precursor protein (Homo sapiens) (UniProt P05067); assay: Inhibition of STZ induced beta amyloid clearance in human SH-SY5Y cells by ELISA; type: cell-based
Mus musculus [4] = assay: Antialzheimer activity in APP1/PS1 transgenic mouse assessed as decrease in prolonged path length at 30 mg/kg, ip administered 100 days prior to testing and measured at day 6 post continuous dosing by Morris water maze test; type: functional, organism-based
Mus musculus [5] = assay: Antialzheimer activity in APP1/PS1 transgenic mouse assessed as decrease in escape latencies at 30 mg/kg, ip administered 100 days prior to testing and measured at day 6 post continuous dosing by Morris water maze test; type: functional, organism-based
Mus musculus [6] = assay: Toxicity in APP1/PS1 transgenic mouse assessed as change in body weight at 15 to 30 mg/kg, ip administered 100 days; type: organism-based; conditions: in vivo, 2400 h
Mus musculus [7] = assay: Toxicity in APP1/PS1 transgenic mouse assessed as effect on liver function at 15 to 30 mg/kg, ip administered 100 days; type: organism-based; conditions: in vivo, 2400 h
Mus musculus [8] = assay: Toxicity in APP1/PS1 transgenic mouse assessed as change in swimming speed at 15 to 30 mg/kg, ip administered 100 days; type: organism-based; conditions: in vivo, 2400 h

CC12CC3CC(C)(C1)CC(NC(=O)CN(C1CCCCC1)S(=O)(=O)c1ccccc1)(C3)C2
EC50 (SH-SY5Y): > 20 µM

COc1ccc(Cl)cc1N(CC(=O)NC12CC3CC(C)(CC(C)(C3)C1)C2)C(=O)c1ccccc1
EC50 (SH-SY5Y): > 20 µM

COc1ccc(Cl)cc1N(CC(=O)NC12CC3CC(C)(CC(C)(C3)C1)C2)S(=O)(=O)c1ccccc1
EC50 (SH-SY5Y): 0.22 µM | inhibition [1]: Active | inhibition [2]: Active | inhibition [3]: Active | Activity (Mus musculus [4]): Active | Activity (Mus musculus [5]): Active | Activity (Mus musculus [6]): Non-Toxic | Activity (Mus musculus [7]): Non-Toxic | Activity (Mus musculus [8]): Non-Toxic

CCN(CC)C(=O)CN(c1cc(Cl)ccc1OC)S(=O)(=O)c1ccccc1
EC50 (SH-SY5Y): > 20 µM

COc1ccc(Cl)cc1N(CC(=O)NC12CC3CC(C)(CC(C)(C3)C1)C2)S(=O)(=O)c1ccc([N+](=O)[O-])cc1
EC50 (SH-SY5Y): > 20 µM

CC12CC3CC(C)(C1)CC(NC(=O)CN(c1ccccc1)S(=O)(=O)c1ccccc1)(C3)C2
EC50 (SH-SY5Y): > 20 µM

COc1ccc(Cl)cc1N(CC(=O)Nc1ccc(Cl)cc1)S(=O)(=O)c1ccccc1
EC50 (SH-SY5Y): > 20 µM

CC12CC3CC(C)(C1)CC(NC(=O)CN(c1ccccc1Cl)S(=O)(=O)c1ccccc1)(C3)C2
EC50 (SH-SY5Y): 16.1 µM

COc1ccc(Cl)cc1N(CC(=O)N1CCCCC1)S(=O)(=O)c1ccccc1
EC50 (SH-SY5Y): 14.5 µM | inhibition [1]: Active

CC12CC3CC(C)(C1)CC(NC(=O)CN(c1ccc(Cl)cc1)S(=O)(=O)c1ccccc1)(C3)C2
EC50 (SH-SY5Y): > 20 µM

COc1ccc(Cl)cc1N(CC(=O)Nc1ccccc1)S(=O)(=O)c1ccccc1
EC50 (SH-SY5Y): > 20 µM

COc1ccc(Cl)cc1N(CC(=O)Nc1ccc(C(F)(F)F)cc1)S(=O)(=O)c1ccccc1
EC50 (SH-SY5Y): 3.75 µM | inhibition [1]: Active | inhibition [2]: Active | inhibition [3]: Active

COc1ccc(Cl)cc1N(CC(=O)N(C1CCCCC1)C1CCCCC1)S(=O)(=O)c1ccccc1
EC50 (SH-SY5Y): 14.3 µM

Cc1ccc(N(CC(=O)NC23CC4CC(C)(CC(C)(C4)C2)C3)S(=O)(=O)c2ccccc2)cc1Cl
EC50 (SH-SY5Y): 8.86 µM

CCn1ccc2cc(NC(=O)CN(c3cc(Cl)ccc3OC)S(=O)(=O)c3ccccc3)ccc21
EC50 (SH-SY5Y): 2.22 µM

Cc1c(Cl)cccc1N(CC(=O)NC12CC3CC(C)(CC(C)(C3)C1)C2)S(=O)(=O)c1ccccc1
EC50 (SH-SY5Y): > 20 µM

COc1cccc(NC(=O)CN(c2cc(Cl)ccc2OC)S(=O)(=O)c2ccccc2)c1
EC50 (SH-SY5Y): 17.6 µM

COc1ccc(Cl)cc1N(CC(=O)Nc1ccc2c(c1)c1ccccc1n2C)S(=O)(=O)c1ccccc1
EC50 (SH-SY5Y): 1.32 µM

COc1ccc(Cl)cc1N(CC(=O)NC1CCCCC1)S(=O)(=O)c1ccccc1
EC50 (SH-SY5Y): 17.6 µM

COc1ccc(Cl)cc1N(CC(=O)NC12CC3CC(C)(CC(C)(C3)C1)C2)S(=O)(=O)c1ccc(C)cc1
EC50 (SH-SY5Y): > 20 µM

COc1ccc(CNC(=O)CN(c2cc(Cl)ccc2OC)S(=O)(=O)c2ccccc2)cc1
EC50 (SH-SY5Y): > 20 µM

CC12CC3CC(C)(C1)CC(NC(=O)CN(c1cccc(Cl)c1)S(=O)(=O)c1ccccc1)(C3)C2
EC50 (SH-SY5Y): 12.3 µM

COc1ccc(NC(=O)CN(c2cc(Cl)ccc2OC)S(=O)(=O)c2ccccc2)cc1OC
EC50 (SH-SY5Y): > 20 µM

COc1ccc(Cl)cc1N(CC(=O)N1CCc2ccccc21)S(=O)(=O)c1ccccc1
EC50 (SH-SY5Y): > 20 µM

CCn1c2ccccc2c2cc(NC(=O)CN(c3cc(Cl)ccc3OC)S(=O)(=O)c3ccccc3)ccc21
EC50 (SH-SY5Y): 0.25 µM | inhibition [1]: Active | inhibition [3]: Active

COc1ccc(Cl)cc1N(CC(=O)Nc1cccc2c3ccccc3n(C)c12)S(=O)(=O)c1ccccc1
EC50 (SH-SY5Y): 3.18 µM | inhibition [1]: Active | inhibition [3]: Active

COc1ccc(Cl)cc1N(CC(=O)Nc1cccc2c1[nH]c1ccccc12)S(=O)(=O)c1ccccc1
EC50 (SH-SY5Y): 6.56 µM

COc1ccc(Cl)cc1N(CC(=O)Nc1cccc2ccccc12)S(=O)(=O)c1ccccc1
EC50 (SH-SY5Y): 17.4 µM

COc1ccc(NC(=O)CN(c2cc(Cl)ccc2OC)S(=O)(=O)c2ccccc2)cc1
EC50 (SH-SY5Y): 16.2 µM

COc1ccc(Cl)cc1N(CC(=O)Nc1ccc([N+](=O)[O-])cc1)S(=O)(=O)c1ccccc1
EC50 (SH-SY5Y): 8.21 µM

COc1ccc(Cl)cc1NC(=O)CN(c1cc(Cl)ccc1OC)S(=O)(=O)c1ccccc1
EC50 (SH-SY5Y): > 20 µM

COc1ccc(Cl)cc1N(CC(=O)NC12CC3CC(C)(CC(C)(C3)C1)C2)S(=O)(=O)c1ccc(Cl)cc1
EC50 (SH-SY5Y): > 20 µM

COc1ccccc1NC(=O)CN(c1cc(Cl)ccc1OC)S(=O)(=O)c1ccccc1
EC50 (SH-SY5Y): 15.5 µM

COc1ccc(Cl)cc1N(CC(=O)Nc1ccc2[nH]c3ccccc3c2c1)S(=O)(=O)c1ccccc1
EC50 (SH-SY5Y): 2.75 µM

CCCNC(=O)CN(c1cc(Cl)ccc1OC)S(=O)(=O)c1ccccc1
EC50 (SH-SY5Y): > 20 µM

From ChEMBL document CHEMBL4145486, “Design, synthesis and biological evaluation of LX2343 derivatives as neuroprotective agents for the treatment of Alzheimer's disease” (Eur J Med Chem, 2018)
